According to patent publication EP4629837B1, “ANIMAL FEED COMPOSITION HAVING A COMBINATION OF FENUGREEK AND NEOHESPERIDIN DIHYDROCHALCONE (NHDC) TO IMPROVE PERFORMANCE OF ANIMALS OR STIMULATE THEIR SWEET TASTE RECEPTORS” (ADM International Sàrl, priority 2022, dated 2024):
Where a SMILES comes first, the peptide text is derived from it.

Assays:
pig intestine = conditions: Daly et al.; cited from earlier work
[1] = target: T1, pig sweet taste receptors (Sus scrofa, UniProt I1ZBR6+Q0EF93); conditions: Daly et al.; cited from earlier work
T1 sequence (I1ZBR6 entry or part of it): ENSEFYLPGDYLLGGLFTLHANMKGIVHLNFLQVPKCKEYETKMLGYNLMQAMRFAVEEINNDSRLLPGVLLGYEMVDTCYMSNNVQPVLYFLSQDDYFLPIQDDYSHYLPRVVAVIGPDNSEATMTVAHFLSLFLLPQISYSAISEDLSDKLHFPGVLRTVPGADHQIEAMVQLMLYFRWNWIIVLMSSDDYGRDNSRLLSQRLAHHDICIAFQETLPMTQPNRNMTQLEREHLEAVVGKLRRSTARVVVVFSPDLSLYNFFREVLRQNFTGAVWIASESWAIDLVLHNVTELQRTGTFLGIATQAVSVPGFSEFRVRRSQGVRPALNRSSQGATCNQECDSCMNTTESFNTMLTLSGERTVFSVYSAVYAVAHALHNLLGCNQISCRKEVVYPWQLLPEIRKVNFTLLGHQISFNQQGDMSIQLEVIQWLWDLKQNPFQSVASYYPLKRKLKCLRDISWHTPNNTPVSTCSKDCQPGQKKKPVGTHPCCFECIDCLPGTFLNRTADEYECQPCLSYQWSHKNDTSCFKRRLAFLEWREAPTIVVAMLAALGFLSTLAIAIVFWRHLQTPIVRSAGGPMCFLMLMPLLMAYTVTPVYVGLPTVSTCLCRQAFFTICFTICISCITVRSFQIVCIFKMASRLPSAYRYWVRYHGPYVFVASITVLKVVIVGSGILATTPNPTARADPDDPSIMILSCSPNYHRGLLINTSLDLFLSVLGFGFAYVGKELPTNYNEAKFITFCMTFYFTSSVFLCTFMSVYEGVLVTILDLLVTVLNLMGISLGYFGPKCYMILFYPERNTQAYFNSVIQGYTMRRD
T1 sequence (Q0EF93 entry or part of it): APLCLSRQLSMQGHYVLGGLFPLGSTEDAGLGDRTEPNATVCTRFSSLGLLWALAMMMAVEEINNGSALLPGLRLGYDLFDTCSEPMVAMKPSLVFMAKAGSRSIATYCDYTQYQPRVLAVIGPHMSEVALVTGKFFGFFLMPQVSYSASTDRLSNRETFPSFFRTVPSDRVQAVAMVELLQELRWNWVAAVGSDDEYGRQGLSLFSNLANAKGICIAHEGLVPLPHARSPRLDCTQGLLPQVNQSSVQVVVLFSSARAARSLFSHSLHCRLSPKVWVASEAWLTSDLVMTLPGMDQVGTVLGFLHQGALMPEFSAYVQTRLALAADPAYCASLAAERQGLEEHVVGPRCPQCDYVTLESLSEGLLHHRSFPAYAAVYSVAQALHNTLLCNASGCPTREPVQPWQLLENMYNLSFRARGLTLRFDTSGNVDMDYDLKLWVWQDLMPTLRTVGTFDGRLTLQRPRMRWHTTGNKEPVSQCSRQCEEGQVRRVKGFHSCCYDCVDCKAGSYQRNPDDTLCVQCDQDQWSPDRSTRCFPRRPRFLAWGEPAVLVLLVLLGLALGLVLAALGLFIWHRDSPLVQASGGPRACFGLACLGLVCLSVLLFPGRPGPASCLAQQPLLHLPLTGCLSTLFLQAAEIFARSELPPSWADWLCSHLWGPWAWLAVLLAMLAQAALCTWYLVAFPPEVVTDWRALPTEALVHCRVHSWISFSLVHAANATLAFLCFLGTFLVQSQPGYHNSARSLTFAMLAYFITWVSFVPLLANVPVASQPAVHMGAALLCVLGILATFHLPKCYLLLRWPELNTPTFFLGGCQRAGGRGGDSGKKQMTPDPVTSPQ

[2] = target: T1, pig sweet taste receptors; assay: Activation of heterologously expressed pig sweet taste receptors in HEK293T-PEAK rapid Gα15 cells (Fluo-4 AM Ca2+ fluorescence, dose-response); format: cell-based; conditions: single compounds and 1:4 combination, heterologous system of Example 1
Method: For the production of pig sweet taste receptor constructs, full length coding sequences of pig taste receptors T1R2 and T1R3 of pigs were synthesized and ligated into modified expression vectors pcDNA3/TO and pcDNA5/FRT/PM for evaluation. Amino-terminal sst-tags were added to facilitate cell membrane targeting, cytomegalovirus (CMV) promoters were added to control gene expression, and carboxylterminal FLAG or HSV tags were added to enable immunological detection of receptor subunits 1,2. […]
Functional expression of sweet taste receptors. The pig sweet taste receptor function was analyzed by transfecting the HEK293T-PEAK rapid Gα15 cells with taste receptor constructs described herein. […]
The transfected cells were analyzed with each of the sweeteners/compounds individually using a wide range of concentrations. The ligand binding and subsequent activation of the taste receptor causes an influx of Ca^2+ ions into the cell, which can be measured as an increase in fluorescent signaling using a microplate reader as shown in Figure 2.
The dose-response curves are calculated by using mean fluorescence values of multiple wells receiving the same concentration of sweetener/compound, and subtracting fluorescence changes of corresponding cells transfected with empty vector (ΔF). Signals are normalized to background fluorescence (ΔF/F). […]

In vitro EC50 (mg/ml) for pig sweet taste receptors [2]	SMILES	glucose uptake in the pig intestine (pig intestine)	activation of pig sweet taste receptors in vitro [1]
–	COC(=O)[C@H](Cc1ccccc1)NC(=O)[C@@H](N)CC(=O)O [aspartame] (H-Asp-Phe-OMe)	do not induce higher glucose uptake in the pig intestine	do not activate pig sweet taste receptors in vitro
0.62 mg/mL	COc1ccc(CCC(=O)c2c(O)cc(O[C@@H]3O[C@H](CO)[C@@H](O)[C@H](O)[C@H]3O[C@@H]3O[C@@H](C)[C@H](O)[C@@H](O)[C@H]3O)cc2O)cc1O [NHDC # 020D066, 1-(4-((2-O-[6-Deoxy-α-L-mannopyranosyl]-β-D-glucopyranosyl)oxy)-2,6-dihydroxyphenyl)-3-[3-hydroxy-4-methoxyphenyl]-1-poranone]	–	–
0.76 mg/mL	C=C1C[C@@]23CC[C@H]4[C@@](C)(CCC[C@@]4(C)C(=O)O[C@@H]4O[C@H](CO)[C@@H](O)[C@H](O)[C@H]4O)[C@@H]2CC[C@]1(O[C@@H]1O[C@H](CO)[C@@H](O)[C@H](O[C@@H]2O[C@H](CO)[C@@H](O)[C@H](O)[C@H]2O)[C@H]1O[C@@H]1O[C@H](CO)[C@@H](O)[C@H](O)[C@H]1O)C3 [Rebaudioside A]	–	–
